Our source for the melting point values is patent US20020137774A1, “Carboxyaryl substituted diphenyl ureas as raf kinase inhibitors” (BAYER CORPORATION, priority 1999, published 2002).

`COC(=O)c1ccc(Oc2ccc(NC(=O)Nc3ccc(Cl)c(C(F)(F)F)c3)cc2)cn1` [Entry 55, N-(4-chloro-3-(trifluoromethyl)phenyl)-N′-(4-(2-(methoxycarbonyl)-5-pyridyloxy)phenyl) urea]: the melting point (usually the temperature, or range, at which the solid turns liquid) was in the range of 228 to 230 °C.
